In ChEMBL document CHEMBL3132769, “Fragment growing to retain or alter the selectivity of anchored kinase hinge-binding fragments” (Medchemcomm, 2014) one finds inhibition data, which are given here for five compounds.

In test [1] the target is T1, Inhibitor of nuclear factor kappa-B kinase subunit beta (Homo sapiens) (UniProt O14920).
T1 sequence (whole entry): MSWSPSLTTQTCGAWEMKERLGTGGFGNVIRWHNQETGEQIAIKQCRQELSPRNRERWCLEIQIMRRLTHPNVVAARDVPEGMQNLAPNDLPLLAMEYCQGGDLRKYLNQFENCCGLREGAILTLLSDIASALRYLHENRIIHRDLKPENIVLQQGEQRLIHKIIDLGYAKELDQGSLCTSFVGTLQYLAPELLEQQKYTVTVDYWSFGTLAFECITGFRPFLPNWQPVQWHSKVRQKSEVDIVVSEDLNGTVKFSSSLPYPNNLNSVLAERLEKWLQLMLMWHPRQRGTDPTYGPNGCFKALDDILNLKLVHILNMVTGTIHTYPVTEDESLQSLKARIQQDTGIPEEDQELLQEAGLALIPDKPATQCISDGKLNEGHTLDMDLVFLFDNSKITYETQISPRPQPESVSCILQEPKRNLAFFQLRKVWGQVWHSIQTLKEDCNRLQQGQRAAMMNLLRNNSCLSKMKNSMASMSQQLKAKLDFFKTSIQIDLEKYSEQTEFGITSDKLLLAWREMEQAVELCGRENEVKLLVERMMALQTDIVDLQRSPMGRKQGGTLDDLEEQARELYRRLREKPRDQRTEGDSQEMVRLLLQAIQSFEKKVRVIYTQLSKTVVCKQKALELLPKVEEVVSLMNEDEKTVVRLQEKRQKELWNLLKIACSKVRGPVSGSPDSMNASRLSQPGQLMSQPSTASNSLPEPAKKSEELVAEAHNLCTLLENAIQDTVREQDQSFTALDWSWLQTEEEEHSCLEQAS
Briefly: Inhibition of human full length IKK beta expressed in baculovirus assessed as substrate phosphorylation using fluorescence-labelled peptides as substrate at 0.1 uM after 90 mins by microfluidic peptide phosphorylation assay.

The target in test [2] is Fibroblast growth factor receptor 2 (Homo sapiens) (UniProt P21802). Briefly: Inhibition of human FGFR2 catalytic domain expressed in baculovirus assessed as substrate phosphorylation using fluorescence-labelled peptides as substrate at 420 uM after 90 mins by microfluidic peptide phosphorylation assay.
Chain of Fibroblast growth factor receptor 2 (Homo sapiens) (P21802 22-821 limits assumed): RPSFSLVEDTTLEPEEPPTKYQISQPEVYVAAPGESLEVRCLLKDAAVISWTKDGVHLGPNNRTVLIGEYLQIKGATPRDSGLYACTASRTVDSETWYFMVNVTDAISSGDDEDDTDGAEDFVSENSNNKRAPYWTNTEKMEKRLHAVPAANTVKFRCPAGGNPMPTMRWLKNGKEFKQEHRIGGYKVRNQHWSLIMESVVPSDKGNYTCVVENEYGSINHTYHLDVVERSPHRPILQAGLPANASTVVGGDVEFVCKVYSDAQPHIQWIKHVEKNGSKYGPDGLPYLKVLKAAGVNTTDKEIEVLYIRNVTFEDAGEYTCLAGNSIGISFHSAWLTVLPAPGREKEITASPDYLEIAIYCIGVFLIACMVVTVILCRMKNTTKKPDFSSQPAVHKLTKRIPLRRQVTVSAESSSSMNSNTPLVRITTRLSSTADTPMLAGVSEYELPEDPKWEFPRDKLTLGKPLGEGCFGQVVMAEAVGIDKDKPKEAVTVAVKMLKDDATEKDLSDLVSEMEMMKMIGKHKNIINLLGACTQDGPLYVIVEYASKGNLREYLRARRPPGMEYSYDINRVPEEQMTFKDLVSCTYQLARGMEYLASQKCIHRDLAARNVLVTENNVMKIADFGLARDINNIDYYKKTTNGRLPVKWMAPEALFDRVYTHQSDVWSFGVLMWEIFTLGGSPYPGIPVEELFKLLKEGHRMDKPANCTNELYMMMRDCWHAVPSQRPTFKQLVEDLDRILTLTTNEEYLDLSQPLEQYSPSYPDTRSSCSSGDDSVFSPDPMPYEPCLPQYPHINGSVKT
Test [3] has as its target Ribosomal protein S6 kinase alpha-3 (Homo sapiens) (UniProt P51812). Briefly: Inhibition of human full length RSK2 expressed in baculovirus assessed as substrate phosphorylation using fluorescence-labelled peptides as substrate at 95 uM after 90 mins by microfluidic peptide phosphorylation assay.
For test [4], the target named is T2, Serine/threonine-protein kinase Sgk1 (Homo sapiens) (UniProt O00141).
T2 sequence (whole entry): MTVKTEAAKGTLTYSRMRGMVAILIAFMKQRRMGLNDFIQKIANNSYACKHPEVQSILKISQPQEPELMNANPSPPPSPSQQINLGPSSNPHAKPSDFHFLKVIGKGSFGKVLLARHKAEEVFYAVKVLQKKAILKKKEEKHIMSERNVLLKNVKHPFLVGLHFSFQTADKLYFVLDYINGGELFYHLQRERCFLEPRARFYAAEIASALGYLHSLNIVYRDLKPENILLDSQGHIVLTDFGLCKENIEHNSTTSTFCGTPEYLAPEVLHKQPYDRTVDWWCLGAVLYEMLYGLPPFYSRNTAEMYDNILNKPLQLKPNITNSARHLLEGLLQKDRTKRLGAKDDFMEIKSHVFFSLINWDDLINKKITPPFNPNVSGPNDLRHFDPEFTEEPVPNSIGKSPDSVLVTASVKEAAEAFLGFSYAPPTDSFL
Briefly: Inhibition of human truncated SGK1 expressed in baculovirus assessed as substrate phosphorylation using fluorescence-labelled peptides as substrate at 1000 uM after 90 mins by microfluidic peptide phosphorylation assay.

The target of test [5] is Epidermal growth factor receptor (Homo sapiens) (UniProt P00533). Briefly: Inhibition of human EGFR catalytic domain expressed in baculovirus assessed as substrate phosphorylation using fluorescence-labelled peptides as substrate at 0.06 uM after 90 mins by microfluidic peptide phosphorylation assay.
Chain of Epidermal growth factor receptor (Homo sapiens) (P00533 whole entry, the tested form may be a part): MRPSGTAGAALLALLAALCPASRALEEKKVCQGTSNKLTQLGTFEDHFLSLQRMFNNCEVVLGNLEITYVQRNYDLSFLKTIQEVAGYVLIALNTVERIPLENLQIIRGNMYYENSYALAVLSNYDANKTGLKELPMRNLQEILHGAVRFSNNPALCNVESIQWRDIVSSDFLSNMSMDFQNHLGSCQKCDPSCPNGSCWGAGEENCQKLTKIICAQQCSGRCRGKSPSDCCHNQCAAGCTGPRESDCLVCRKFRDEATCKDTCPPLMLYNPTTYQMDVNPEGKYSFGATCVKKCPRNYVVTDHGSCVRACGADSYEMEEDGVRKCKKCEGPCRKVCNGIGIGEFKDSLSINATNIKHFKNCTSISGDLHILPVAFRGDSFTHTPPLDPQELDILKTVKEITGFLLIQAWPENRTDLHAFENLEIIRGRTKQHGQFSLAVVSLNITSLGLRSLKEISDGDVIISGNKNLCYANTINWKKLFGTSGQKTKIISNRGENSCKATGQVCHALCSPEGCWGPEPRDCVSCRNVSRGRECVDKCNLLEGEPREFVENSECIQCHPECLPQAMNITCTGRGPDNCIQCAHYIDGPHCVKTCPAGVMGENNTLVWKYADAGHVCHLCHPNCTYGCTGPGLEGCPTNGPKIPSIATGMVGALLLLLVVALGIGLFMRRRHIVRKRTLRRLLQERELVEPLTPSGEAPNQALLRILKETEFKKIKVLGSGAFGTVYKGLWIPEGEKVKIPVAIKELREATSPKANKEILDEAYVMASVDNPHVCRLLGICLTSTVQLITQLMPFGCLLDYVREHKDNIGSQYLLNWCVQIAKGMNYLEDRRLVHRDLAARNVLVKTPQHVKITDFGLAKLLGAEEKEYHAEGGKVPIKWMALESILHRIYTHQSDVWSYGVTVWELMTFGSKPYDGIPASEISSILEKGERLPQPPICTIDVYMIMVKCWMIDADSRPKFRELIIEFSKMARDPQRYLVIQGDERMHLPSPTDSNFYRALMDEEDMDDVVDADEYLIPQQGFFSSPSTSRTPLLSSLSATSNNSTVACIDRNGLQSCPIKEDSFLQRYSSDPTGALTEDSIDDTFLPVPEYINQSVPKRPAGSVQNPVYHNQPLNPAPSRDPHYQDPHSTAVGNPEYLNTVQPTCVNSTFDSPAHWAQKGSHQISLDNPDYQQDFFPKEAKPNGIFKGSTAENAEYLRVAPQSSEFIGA
Test [6] deals with Tyrosine-protein kinase Lck (Homo sapiens) (UniProt P06239). Briefly: Inhibition of human full length LCK expressed in baculovirus assessed as substrate phosphorylation using fluorescence-labelled peptides as substrate at 0.06 uM after 90 mins by microfluidic peptide phosphorylation assay.
Chain of Tyrosine-protein kinase Lck (Homo sapiens) (P06239 2-509 limits assumed): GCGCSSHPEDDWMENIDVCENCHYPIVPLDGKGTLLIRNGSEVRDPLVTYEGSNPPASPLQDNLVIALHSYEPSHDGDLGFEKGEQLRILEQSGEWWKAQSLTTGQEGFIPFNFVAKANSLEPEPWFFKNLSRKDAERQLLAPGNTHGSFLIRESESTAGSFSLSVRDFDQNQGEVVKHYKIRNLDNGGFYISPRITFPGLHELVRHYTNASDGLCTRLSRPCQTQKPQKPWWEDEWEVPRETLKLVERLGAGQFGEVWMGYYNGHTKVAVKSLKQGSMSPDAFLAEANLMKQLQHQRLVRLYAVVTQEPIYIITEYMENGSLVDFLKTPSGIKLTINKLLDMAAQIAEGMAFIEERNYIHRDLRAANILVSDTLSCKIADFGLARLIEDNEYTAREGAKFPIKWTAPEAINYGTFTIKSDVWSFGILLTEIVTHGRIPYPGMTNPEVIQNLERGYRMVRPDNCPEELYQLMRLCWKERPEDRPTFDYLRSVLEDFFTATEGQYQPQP
The target in test [7] is T3, Serine/threonine-protein kinase DCLK2 (Homo sapiens) (UniProt Q8N568).
T3 sequence (whole entry): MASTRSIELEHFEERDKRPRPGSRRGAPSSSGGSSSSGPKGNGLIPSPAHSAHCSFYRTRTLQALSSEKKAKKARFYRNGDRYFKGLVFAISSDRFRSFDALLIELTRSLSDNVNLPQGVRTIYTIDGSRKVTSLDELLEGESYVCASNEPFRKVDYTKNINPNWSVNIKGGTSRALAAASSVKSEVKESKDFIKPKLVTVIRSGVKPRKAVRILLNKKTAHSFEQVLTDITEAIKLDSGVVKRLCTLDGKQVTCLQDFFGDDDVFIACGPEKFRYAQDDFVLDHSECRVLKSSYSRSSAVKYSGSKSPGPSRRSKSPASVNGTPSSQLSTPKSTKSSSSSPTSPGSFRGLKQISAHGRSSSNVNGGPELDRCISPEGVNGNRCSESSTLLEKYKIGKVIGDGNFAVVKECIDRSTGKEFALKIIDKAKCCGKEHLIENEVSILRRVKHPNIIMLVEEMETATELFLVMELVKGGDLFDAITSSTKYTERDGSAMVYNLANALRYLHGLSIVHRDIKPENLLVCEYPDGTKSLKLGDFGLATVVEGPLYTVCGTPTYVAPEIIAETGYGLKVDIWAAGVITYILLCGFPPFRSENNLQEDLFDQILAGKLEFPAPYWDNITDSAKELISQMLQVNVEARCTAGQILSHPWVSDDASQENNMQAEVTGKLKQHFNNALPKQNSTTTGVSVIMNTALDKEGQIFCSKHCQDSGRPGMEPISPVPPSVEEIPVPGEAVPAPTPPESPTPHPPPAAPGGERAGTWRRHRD
Briefly: Inhibition of human full length DCAMKL2 expressed in baculovirus assessed as substrate phosphorylation using fluorescence-labelled peptides as substrate at 0.06 uM after 90 mins by microfluidic peptide phosphorylation assay.

Chain of Ribosomal protein S6 kinase alpha-3 (Homo sapiens) (P51812 whole entry): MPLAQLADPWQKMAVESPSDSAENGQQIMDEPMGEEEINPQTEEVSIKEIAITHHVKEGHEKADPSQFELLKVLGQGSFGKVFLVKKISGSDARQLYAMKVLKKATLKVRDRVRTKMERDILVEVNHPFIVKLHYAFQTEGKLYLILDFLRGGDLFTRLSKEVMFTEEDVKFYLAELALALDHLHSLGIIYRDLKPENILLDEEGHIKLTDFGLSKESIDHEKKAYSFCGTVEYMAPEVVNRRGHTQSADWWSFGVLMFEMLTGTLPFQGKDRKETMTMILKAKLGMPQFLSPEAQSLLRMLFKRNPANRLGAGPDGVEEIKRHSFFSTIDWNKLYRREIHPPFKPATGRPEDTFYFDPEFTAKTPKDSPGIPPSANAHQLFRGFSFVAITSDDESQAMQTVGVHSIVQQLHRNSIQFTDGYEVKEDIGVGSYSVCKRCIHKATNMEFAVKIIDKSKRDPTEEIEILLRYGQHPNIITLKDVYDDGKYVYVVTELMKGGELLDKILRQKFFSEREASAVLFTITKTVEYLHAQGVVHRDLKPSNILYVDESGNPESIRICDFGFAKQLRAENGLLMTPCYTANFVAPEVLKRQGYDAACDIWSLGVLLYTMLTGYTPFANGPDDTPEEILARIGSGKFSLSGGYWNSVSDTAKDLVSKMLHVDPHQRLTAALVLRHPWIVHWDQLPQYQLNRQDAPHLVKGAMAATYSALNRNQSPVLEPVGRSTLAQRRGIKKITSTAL

Turning to `C[C@H](CN(C)C)Oc1nc(Nc2cc3cccc(Cl)c3cn2)cnc1C#N`, the inhibition in test [1] stood at 3.5%. `c1nc(N2CCOCC2)c2nc[nH]c2n1`: in test [2], the inhibition was determined as 93%.

As for `NCCc1ccc(-c2ncnc3[nH]cnc23)cc1`, the inhibition in test [3] amounted to 87.5%. As for `c1cnc2[nH]ccc2c1`, the inhibition in test [4] was found to be 94%.

As to `NC1(Cc2ccc(Cl)cc2)CCN(c2ncnc3[nH]ccc23)CC1`, the inhibition in test [5], in test [6] and in test [7] was 0% in each case.

Usually inhibition stands for the percentage by which the read-out fell short of the control.
